Experiment [1] relates to Klebsiella pneumoniae. Nature of the experiment: Antibacterial activity against Klebsiella pneumoniae after 24 hr. Type of experiment: functional.
In experiment [2] the test system is Escherichia coli. Nature of the experiment: Antibacterial activity against Escherichia coli at 50 ug/ml after 24 hr by agar diffusion method. Format: functional. Conditions: read-out: DIZ. In general terms: In agar diffusion tests the substance spreads into inoculated agar from a disc or well.
Experiment [3] deals with Escherichia coli. The experiment in a line: Antibacterial activity against Escherichia coli after 24 hr. Type of experiment: functional.
For experiment [4], the system named is Staphylococcus aureus. Nature of the experiment: Antibacterial activity against Staphylococcus aureus after 24 hr. Type of experiment: functional.
Experiment [5] relates to Klebsiella pneumoniae. Nature of the experiment: Antibacterial activity against Klebsiella pneumoniae at 50 ug/ml after 24 hr by agar diffusion method. Format: functional. The settings on record: read-out: DIZ.
Experiment [6] relates to Staphylococcus aureus. The experiment in a line: Antibacterial activity against Staphylococcus aureus at 50 ug/ml after 24 hr by agar diffusion method. Type of experiment: functional. The settings on record: read-out: DIZ.
In experiment [7] the test system is Klebsiella pneumoniae. Nature of the experiment: Antibacterial activity against Klebsiella pneumoniae at 1 ug/ml after 24 hr by agar diffusion method. The settings on record: read-out: DIZ.
Experiment [8] concerns Staphylococcus aureus. Nature of the experiment: Antibacterial activity against Staphylococcus aureus at 1 ug/ml after 24 hr by agar diffusion method. Conditions: read-out: DIZ.

Results on eleven compounds are retold here after ChEMBL document CHEMBL3045805, “Synthesis, characterization, and antimicrobial activity of some new coumarin derivatives” (Med Chem Res, 2012).

Each structure is given as a SMILES string. Converted amounts (≈) assume the structure as drawn.

Usually MIC stands for the smallest concentration in the dilution series that meets the test's criterion for growth inhibition. A high value points to a need for much substance. Take `COc1ccc2c(CNc3ccc4c(C)cc(=O)oc4c3)cc(=O)oc2c1`: the MIC worked out at 22.9 µg/mL (≈ 63 µM) with Klebsiella pneumoniae [1], 45.9 µg/mL (≈ 126 µM) with Escherichia coli [3] and 91.9 µg/mL (≈ 253 µM) in the experiment with Staphylococcus aureus [4]. For the same compound, the zone of inhibition at 50 µg/mL with Escherichia coli [2] turned out to be 12 mm; with Klebsiella pneumoniae [5], 20 mm; in the experiment on Staphylococcus aureus [6], 10 mm.

Regarding `COc1ccc2c(CNc3ccc4c(C)cc(=O)oc4c3)c(Br)c(=O)oc2c1`, the MIC was 46.4 µg/mL (≈ 105 µM) in the experiment with Klebsiella pneumoniae [1], 46.4 µg/mL (≈ 105 µM) in the experiment with Escherichia coli [3] and 92.8 µg/mL (≈ 210 µM) against Staphylococcus aureus [4]. Further, the figures for the zone of inhibition at 50 µg/mL in the experiment with Escherichia coli [2], in the experiment with Klebsiella pneumoniae [5] and in the experiment on Staphylococcus aureus [6] were 11 mm, 14 mm and 10 mm, respectively.

On to `CCOC(=O)c1oc2cc(OC)ccc2c1CNc1ccc2c(C)cc(=O)oc2c1`, for which the MIC was 25.8 µg/mL (≈ 63.3 µM) with Klebsiella pneumoniae [1], 51.6 µg/mL (≈ 127 µM) in the experiment on Escherichia coli [3] and above 100 µg/mL against Staphylococcus aureus [4]. Besides, the values for the zone of inhibition at 50 µg/mL in the experiment on Escherichia coli [2], in the experiment on Klebsiella pneumoniae [5] and in the experiment on Staphylococcus aureus [6] were 11 mm, 14 mm and 11 mm, respectively.

With `Cc1ccc(S(=O)(=O)NNC(=O)COc2ccc3c(C)cc(=O)oc3c2)cc1`, the MIC against Klebsiella pneumoniae [1] was found to be 49.2 µg/mL (≈ 122 µM); against Escherichia coli [3] it was 98.4 µg/mL (≈ 245 µM); in the experiment on Staphylococcus aureus [4] it was 98.4 µg/mL (≈ 245 µM). The values for the zone of inhibition at 50 µg/mL in the experiment with Escherichia coli [2], in the experiment with Klebsiella pneumoniae [5] and in the experiment with Staphylococcus aureus [6] were 11 mm, 10 mm and 10 mm, respectively.

`Cc1cc(=O)oc2cc(OCC(=O)NNS(=O)(=O)c3ccc(F)cc3)ccc12`: the MIC is 48.3 µg/mL (≈ 119 µM) against Klebsiella pneumoniae [1], 24.1 µg/mL (≈ 59.3 µM) in the experiment with Escherichia coli [3] and 96.6 µg/mL (≈ 238 µM) with Staphylococcus aureus [4]. Besides, the zone of inhibition at 50 µg/mL with Escherichia coli [2] was found to be 12 mm; in the experiment with Klebsiella pneumoniae [5], 12 mm; with Staphylococcus aureus [6], 9 mm.

As for `Cc1cc(=O)oc2cc(OCC(=O)NNS(=O)(=O)c3ccc(Cl)cc3)ccc12`, the MIC in the experiment on Klebsiella pneumoniae [1] is 27.7 µg/mL (≈ 65.5 µM); in the experiment on Escherichia coli [3] it was 55.3 µg/mL (≈ 131 µM); in the experiment with Staphylococcus aureus [4] it was above 100 µg/mL. Besides, the zone of inhibition at 50 µg/mL with Escherichia coli [2] was found to be 12 mm; with Klebsiella pneumoniae [5] it was 10 mm; in the experiment with Staphylococcus aureus [6], 9 mm.

Consider `Cc1cc(=O)oc2cc(OCC(=O)NNS(=O)(=O)c3ccc(Br)cc3)ccc12`, for which the MIC with Klebsiella pneumoniae [1] worked out at 42.6 µg/mL (≈ 91.2 µM); against Escherichia coli [3], 42.6 µg/mL (≈ 91.2 µM); in the experiment on Staphylococcus aureus [4], 85.1 µg/mL (≈ 182 µM). The zone of inhibition at 50 µg/mL in the experiment on Escherichia coli [2] is 12 mm; with Klebsiella pneumoniae [5], 11 mm; with Staphylococcus aureus [6], 14 mm.

As to `Cc1cc(=O)oc2cc(OCC(=O)NNS(=O)(=O)c3cccc([N+](=O)[O-])c3)ccc12`, the minimal inhibitory concentration (MIC) in the experiment with Klebsiella pneumoniae [1] was 52 µg/mL (≈ 120 µM); in the experiment on Escherichia coli [3] it was 26 µg/mL (≈ 60 µM); with Staphylococcus aureus [4], above 100 µg/mL. Further, the zone of inhibition at 50 µg/mL with Escherichia coli [2] is 13 mm; in the experiment on Klebsiella pneumoniae [5], 14 mm; with Staphylococcus aureus [6], 10 mm.

With `Cc1cc(=O)oc2cc(OCC(=O)NNS(=O)(=O)c3ccc(C(F)(F)F)cc3)ccc12`, the MIC was found to be 44.5 µg/mL (≈ 97.5 µM) against Klebsiella pneumoniae [1], 44.5 µg/mL (≈ 97.5 µM) with Escherichia coli [3] and 89.1 µg/mL (≈ 195 µM) against Staphylococcus aureus [4]. For the same compound, the results for the zone of inhibition at 50 µg/mL in the experiment on Escherichia coli [2], in the experiment on Klebsiella pneumoniae [5] and in the experiment on Staphylococcus aureus [6] were 13 mm, 15 mm and 11 mm, respectively.

In the case of `Cc1cc(=O)oc2cc(OCC(=O)NNc3ccnc4c(Cl)cccc34)ccc12`, the figures for the MIC with Klebsiella pneumoniae [1], against Escherichia coli [3] and against Staphylococcus aureus [4] were 57.8 µg/mL (≈ 141 µM), 28.9 µg/mL (≈ 70.5 µM) and above 100 µg/mL, respectively. In addition, the zone of inhibition at 50 µg/mL stood at 13 mm in the experiment on Escherichia coli [2], 13 mm in the experiment with Klebsiella pneumoniae [5] and 10 mm in the experiment on Staphylococcus aureus [6].

Turning to `O=C(O)c1cn(C2CC2)c2cc(N3CCNCC3)c(F)cc2c1=O` [CIPROFLOXACIN], the zone of inhibition at 1 µg/mL in the experiment with Klebsiella pneumoniae [7] was 20 mm; in the experiment with Staphylococcus aureus [8] it was 24 mm. In addition, the MIC in the experiment with Klebsiella pneumoniae [1] was determined as 1.3 µg/mL (≈ 3.92 µM); against Escherichia coli [3] it was 0.6 µg/mL (≈ 1.81 µM); with Staphylococcus aureus [4], 0.6 µg/mL (≈ 1.81 µM).
